Laboratory results from PubChem BioAssay AID330 (DTP/NCI, 2004).
Several values for one entry are separate records, joined by “and”; a condition that tells them apart may be missing. Equal entries are not always repeated. Toxic doses and inconclusive results are not listed. Peptide text beside a SMILES is read from it. * marks the point of attachment. Cbz = O=C(OCc1ccccc1)*

Tested on: P388 leukemia ip, CD2F1 mice, survival T/C
Assay: NCI In Vivo Anticancer Drug Screen. Data for tumor model P388 Leukemia (intraperitoneal) in CD2F1 (CDF1) mice
Conditions: endpoint: median survival time, higher = longer survival
Outline: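 Mice carrying the transplanted tumor received test compound or vehicle. Survival was recorded in each group, and the value is the treated-group measurement divided by that of the vehicle-treated control group.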

[1] = dose: 25.0 mg/kg/injection, schedule: Q01DX009 (ip), vehicle: saline with Tween-80
[2] = dose: 50.0 mg/kg/injection, schedule: Q01DX009 (ip), vehicle: saline with Tween-80
[3] = dose: 100.0 mg/kg/injection, schedule: Q01DX009 (ip), vehicle: saline with Tween-80
[4] = dose: 12.5 mg/kg/injection, schedule: Q01DX009 (ip), vehicle: saline with Tween-80
[5] = dose: 200.0 mg/kg/injection, schedule: Q01DX009 (ip), vehicle: saline with Tween-80
[6] = dose: 50.0 mg/kg/injection, schedule: Q01DX005 (ip), vehicle: Klucel (hydroxypropylcellulose) (HPC)
[7] = dose: 100.0 mg/kg/injection, schedule: Q01DX005 (ip), vehicle: Klucel (hydroxypropylcellulose) (HPC)
[8] = dose: 200.0 mg/kg/injection, schedule: Q01DX005 (ip), vehicle: Klucel (hydroxypropylcellulose) (HPC)
[9] = dose: 50.0 mg/kg/injection, schedule: Q01DX009 (ip), vehicle: Klucel (hydroxypropylcellulose) (HPC)

Nc1c[nH]c(=S)s1
T/C [1]: 116 % of control | T/C [2]: 114 % of control | T/C [3]: 94 % of control

Cc1cc2[nH]c3ccccc3n2c(=O)c1N=Nc1ccccc1
T/C (dose: 87.5 mg/kg/injection, schedule: Q04DX002 (ip), vehicle: Klucel (hydroxypropylcellulose) (HPC)): 101 % of control | T/C (dose: 175.0 mg/kg/injection, schedule: Q04DX002 (ip), vehicle: Klucel (hydroxypropylcellulose) (HPC)): 92 % of control | T/C (dose: 350.0 mg/kg/injection, schedule: Q04DX002 (ip), vehicle: Klucel (hydroxypropylcellulose) (HPC)): 99 % of control

O=C(OC12CCCCC1C1(CCCCC1)N=N2)c1ccccc1 (stereo not drawn)
T/C [4]: 105 % of control | T/C [1]: 99 % of control | T/C [2]: 111 % of control | T/C [3]: 99 % of control | T/C [5]: 97 % of control

CS(=O)(=O)OCCN(CCOS(C)(=O)=O)c1ccc(N=Nc2ccccc2)cc1
T/C [4]: 156 % of control and 176 % of control | T/C [1]: 160 % of control

COc1cc(C(=O)NC(=S)Nc2csc(-c3ccc(F)cc3)n2)cc(OC)c1OC
T/C [6]: 100 % of control | T/C [7]: 94 % of control | T/C [8]: 90 % of control

CC(=O)/C=C/c1ccc(Cl)c(Cl)c1
T/C [2]: 118 % of control | T/C [3]: 111 % of control | T/C [5]: 111 % of control

COc1cc2oc(=O)cc(C)c2cc1N=C=S
T/C (dose: 50.0 mg/kg/injection, schedule: Q04DX003 (ip), vehicle: suspension in saline): 100 % of control | T/C (dose: 100.0 mg/kg/injection, schedule: Q04DX003 (ip), vehicle: suspension in saline): 100 % of control | T/C (dose: 200.0 mg/kg/injection, schedule: Q04DX003 (ip), vehicle: suspension in saline): 92 % of control

Nc1nc(=O)[nH]c([O-])c1N=O.Nc1nc(=O)[nH]c([O-])c1N=O.[Ag+].[Ag+]
T/C (dose: 15.0 mg/kg/injection, schedule: Q01DX005 (ip), vehicle: saline with Tween-80): 104 % of control and 86 % of control | T/C (dose: 30.0 mg/kg/injection, schedule: Q01DX005 (ip), vehicle: saline with Tween-80): 105 % of control and 89 % of control

O=[N+]([O-])c1ccc(O)cc1C=NCCSc1ccc(Cl)cc1
T/C [2]: 100 % of control | T/C [3]: 100 % of control | T/C [5]: 103 % of control

FC(F)(F)c1ccccc1N=Cc1ccc(C=Nc2ccccc2C(F)(F)F)cc1
T/C [9]: 98 % of control | T/C (dose: 100.0 mg/kg/injection, schedule: Q01DX009 (ip), vehicle: Klucel (hydroxypropylcellulose) (HPC)): 91 % of control

CCN(CC)CCN1C(=O)c2cccc(N)c2C1=O
T/C (dose: 50.0 mg/kg/injection, schedule: Q01DX005 (ip), vehicle: saline): 103 % of control | T/C (dose: 100.0 mg/kg/injection, schedule: Q01DX005 (ip), vehicle: saline): 101 % of control

COC(=O)C(CO)NC(=O)C(NC(=O)OCc1ccccc1)C(C)O (stereo not drawn) (Cbz-Thr-Ser-OMe; configuration not given here)
T/C [6]: 118 % of control | T/C [7]: 101 % of control | T/C [8]: 108 % of control

NC(=O)Cc1noc2ccccc12
T/C (dose: 400.0 mg/kg/injection, schedule: Q01DX009 (ip), vehicle: saline with Tween-80): 106 % of control and 88 % of control

CC1=C(C(N)=O)C(c2ccc(O)cc2)NC(=S)N1 (stereo not drawn)
T/C (dose: 60.0 mg/kg/injection, schedule: Q01DX005 (ip), vehicle: Klucel (hydroxypropylcellulose) (HPC)): 101 % of control | T/C (dose: 120.0 mg/kg/injection, schedule: Q01DX005 (ip), vehicle: Klucel (hydroxypropylcellulose) (HPC)): 101 % of control | T/C (dose: 240.0 mg/kg/injection, schedule: Q01DX005 (ip), vehicle: Klucel (hydroxypropylcellulose) (HPC)): 101 % of control

O=C1CSC(COc2ccc(Cl)cc2Cl)O1 (stereo not drawn)
T/C (dose: 25.0 mg/kg/injection, schedule: Q01DX009 (ip), vehicle: Klucel (hydroxypropylcellulose) (HPC)): 100 % of control | T/C [9]: 97 % of control

O=C1C2CCCN2C(=O)N1c1ccc([N+](=O)[O-])cc1 (stereo not drawn)
T/C (dose: 100.0 mg/kg/injection, schedule: Q01DX001 (ip), vehicle: Klucel (hydroxypropylcellulose) (HPC)): 97 % of control | T/C (dose: 200.0 mg/kg/injection, schedule: Q01DX001 (ip), vehicle: Klucel (hydroxypropylcellulose) (HPC)): 97 % of control | T/C (dose: 400.0 mg/kg/injection, schedule: Q01DX001 (ip), vehicle: Klucel (hydroxypropylcellulose) (HPC)): 99 % of control
